Values of other authors as cited in US20200306292A1, “METHOD FOR TREATING ACUTE HYPOVOLEMIA” (Wonder Spray, LLC, priority 2019, published 2020).

Legend:
E. coli [1] = conditions: 50 mM (2.6 ppm) HOCl, within 5 minutes
[2] = inhalation
E. coli [3] = conditions: (2.6 ppm) HOCl, within 5 minutes
f2 RNA = conditions: naked f2 RNA compared with RNA in intact phage

Compound: OCl [HOCl, hypochlorous acid]
- inhibiting the DNA synthesis (E. coli [1]): ninety-six
- adverse effects on inhaling the aerosolized form [2]: no adverse effects
- growth of E. coli (E. coli [3]): completely inhibited
- inactivation of naked f2 RNA (f2 RNA): inactivated naked f2 RNA at the same rate as RNA in intact phage
